Assay results published in patent US9101613B2, “Methods for treating neurological disease” (Neurim Pharmaceuticals (1991) Ltd., priority 2006, dated 2015).
Read-outs that look alike come from different tables or passages of the source.

Tests used:
5-HT2B receptor = target: T1, 5-HT2B receptor (Homo sapiens, UniProt P41595); assay: Serotonin receptor binding, [3H] LSD, CHO-K1 membranes
T1 construct: expressed in transfected cells; host or cells: CHO-K1
Method: (§1) Aliquots of suspended membranes of human recombinant CHO-K1 cells stably expressing human 5-HT1A, 5-HT2A, 5-HT1B, 5-HT2B, 5-HT2C, 5-HT4, 5-HT6 or 5-HT7 receptors were pre-incubated at 25° C. with 1.5 nM [^3H] 8-OH-DPAT (5-HT1A), 1.5 nM [^3H] Ketanserin (5-HT2A), 0.01 nM [^125I] Cyanopindolol (5-HT1B), 1 nM [^3H] Mesulergine (5-HT2c), 0.7 nM [^3H] GR-113808 (5-HT4) or at 37° C. 1.2 nM [^3H] LSD (5-HT2B, 5-HT6 and 5-HT7) in buffer (50 mM Tris-HCl, pH 7.7) alone or in the presence of 1 nM, 10 nM, 0.1 μM, 1 μM, and 10 μM of N-[2-(5-methoxy-indol-3-yl)-ethyl]-commenamide, N-[2-(5-methoxy-indol-3-yl)-ethyl]-coumalylamide, N-[2-(5-methoxy-indol-3-yl)-ethyl]-comanilamide, N-[2-(5-methoxy-indol-3-yl)-ethyl]-2-methoxy-commenamide or N-[2-(5-methoxy-indol-3-yl)-ethyl]-chelidonamide for 60 minutes. The binding reaction was terminated and washed with 4 ml ice-cold 50 mM Tris-HCl buffer by vacuum filtration. Membranes were then collected, and the filters containing the bound ligands were assayed for the amount of radioactivity in a b-counter. Non-specific binding was evaluated using a reaction with 10 μM metergoline (5-HT1A), 1 μM mianserin (5-HT2A and 5-HT2c) or 10 μM serotonin (5-HT1B, 5-HT2B, 5-HT4, 5-HT6 and 5-HT7).

MT-3 receptor = target: T2, MT-3 receptor (Mesocricetus auratus, UniProt A0ABM2YAB8); assay: 125I-melatonin binding in hamster brain membranes, MT-3; details: for inhibition at 10 µM: read-out: MT-3 receptor binding % inhibition by 10 μM
T2 construct: from tissue; host or cells: hamster brain membranes
T2 sequence (A0ABM2YAB8 1-231): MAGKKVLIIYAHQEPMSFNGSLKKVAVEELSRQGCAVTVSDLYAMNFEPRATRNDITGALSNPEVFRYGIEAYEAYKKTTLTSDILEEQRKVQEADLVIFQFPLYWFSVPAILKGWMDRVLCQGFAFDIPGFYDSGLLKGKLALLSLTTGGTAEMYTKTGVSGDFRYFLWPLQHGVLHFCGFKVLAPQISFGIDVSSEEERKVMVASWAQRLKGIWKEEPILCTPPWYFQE
Method: Aliquots of suspended membranes of human recombinant CHP-K1 (Chinese hamster ovary) cells stably expressing human melatonin-1 or melatonin-2 (MT-1 or MT-2) receptors or of hamster brain (MT-3) were incubated at 25° C. with 0.05 nM ^125I-melatonin in buffer (25 mM HEPES, pH 7.4, 5 mM MgCl2, 1 mM CaCl2, 0.5% BSA) or with 0.1 nM for MT-3 alone or in the presence of 1 nM, 10 nM, 0.1 μM, 1 μM and 10 μM of test substances N-[2-(5-methoxy-indol-3-yl)-ethyl]-commenamide, N-[2-(5-methoxy-indol-3-yl)-ethyl]-comanilamide, N-[2-(5-methoxy-indol-3-yl)-ethyl]-coumalylamide, N-[2-(5-methoxy-indol-3-yl)-ethyl]-2-methoxy-commenamide, N-[2-(5-methoxy-indol-3-yl)-ethyl]-chelidonamide, O-[2-(5-methoxy-indol-3-yl)-ethyl]-comenic ester, N-[2-(5-methoxy-indol-3-yl)-ethyl]-2-Pyrone-6-carboxamide and N-[2-(2-bromo-5-methoxy-indol-3-yl)-ethyl]-coumalylamide for 3 hours for MT-1, 4 hours for MT-2 and 30 min for MT-3. The binding reaction was terminated and the membranes were washed with 4 ml of ice-cold HEPES buffer by vacuum filtration. Membranes were then collected, and the filters containing the bound ^125I-melatonin were assayed for the amount of radioactivity in a […]. Non-specific binding was evaluated using a reaction with 1 μM 6-chloromelatonin (MT-1 and MT-2) or 30 μM melatonin (MT-3).

5-HT1A receptor = target: T3, 5-HT1A receptor (Homo sapiens, UniProt P08908); assay: Serotonin receptor binding, [3H] 8-OH-DPAT, CHO-K1 membranes
T3 construct: expressed in transfected cells; host or cells: CHO-K1
T3 sequence (P08908 1-422): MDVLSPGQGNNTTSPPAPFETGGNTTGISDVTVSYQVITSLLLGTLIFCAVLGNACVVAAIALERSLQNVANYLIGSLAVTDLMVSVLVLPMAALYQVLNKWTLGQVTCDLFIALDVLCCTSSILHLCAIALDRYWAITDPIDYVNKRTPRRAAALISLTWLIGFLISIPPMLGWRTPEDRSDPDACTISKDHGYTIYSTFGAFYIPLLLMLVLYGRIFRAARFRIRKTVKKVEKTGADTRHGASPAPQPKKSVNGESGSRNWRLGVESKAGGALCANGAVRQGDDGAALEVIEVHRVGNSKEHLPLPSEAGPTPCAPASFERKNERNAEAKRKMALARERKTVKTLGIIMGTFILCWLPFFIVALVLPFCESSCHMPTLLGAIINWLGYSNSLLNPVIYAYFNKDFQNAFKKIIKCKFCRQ
Method: as §1

5-HT1B receptor = target: T4, 5-HT1B receptor (Homo sapiens, UniProt P28222); assay: Serotonin receptor binding, [125I] Cyanopindolol, CHO-K1 membranes
T4 construct: expressed in transfected cells; host or cells: CHO-K1
T4 sequence (P28222 whole entry): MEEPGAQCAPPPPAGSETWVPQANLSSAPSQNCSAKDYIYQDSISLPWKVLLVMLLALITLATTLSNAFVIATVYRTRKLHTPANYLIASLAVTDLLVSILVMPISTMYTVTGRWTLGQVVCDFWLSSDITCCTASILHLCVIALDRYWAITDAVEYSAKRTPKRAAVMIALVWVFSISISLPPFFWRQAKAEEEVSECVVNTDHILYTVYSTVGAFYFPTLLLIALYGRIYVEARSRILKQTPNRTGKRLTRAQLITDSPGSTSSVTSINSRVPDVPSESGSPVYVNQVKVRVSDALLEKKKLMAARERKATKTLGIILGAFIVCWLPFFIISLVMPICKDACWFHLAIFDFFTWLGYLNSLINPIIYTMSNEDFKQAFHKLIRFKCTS
Method: as §1

5-HT7 receptor = target: T5, 5-HT7 receptor (Homo sapiens, UniProt P34969); assay: Serotonin receptor binding, [3H] LSD, CHO-K1 membranes
T5 construct: expressed in transfected cells; host or cells: CHO-K1
T5 sequence (P34969 whole entry): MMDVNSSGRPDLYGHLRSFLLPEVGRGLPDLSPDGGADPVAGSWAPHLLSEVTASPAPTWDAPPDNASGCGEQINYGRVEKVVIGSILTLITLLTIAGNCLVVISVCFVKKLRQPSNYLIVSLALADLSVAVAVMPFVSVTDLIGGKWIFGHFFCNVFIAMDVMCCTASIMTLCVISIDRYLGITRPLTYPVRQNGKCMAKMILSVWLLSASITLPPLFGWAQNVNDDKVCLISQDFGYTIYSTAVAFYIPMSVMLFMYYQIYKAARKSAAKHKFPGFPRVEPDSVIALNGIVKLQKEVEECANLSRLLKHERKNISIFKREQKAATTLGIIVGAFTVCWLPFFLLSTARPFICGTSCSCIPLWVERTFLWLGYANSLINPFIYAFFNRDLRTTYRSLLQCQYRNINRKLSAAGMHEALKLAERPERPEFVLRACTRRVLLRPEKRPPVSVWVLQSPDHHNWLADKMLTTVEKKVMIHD
Method: as §1

CD1 mice = assay: Motimeter assay (motor activity and rearing); format: in vivo; details: 100 mg/kg i.p.; for effect on motor activity and rearing: 30-35 min and 60-65 min after treatment
Method: Mice were starved for 16 hrs before treatment. Male CD1 mice, weighing 25-30 g, were treated intraperitoneally with melatonin, N-[2-(5-methoxy-indol-3-yl)-ethyl]-comanilamide or N-[2-(5-methoxy-indol-3-yl)-ethyl]-commenamide in a dose of 100 mg/kg. The horizontal (i.e. locomotion) and vertical (i.e. rearing) movements were measured for 5 minutes two times, 30 and 60 min after treatment. Eight mice/group were used. The 4-channel activity meter is a square-shaped frame containing transparent infra-red permeable acrylic cages. The frames feature two pairs of light-beam strips for measuring horizontal movements, and two pairs for measuring rearing. Each strip is equipped with 16 infra-red sensors.

[1] = 0.1 nM 125I-melatonin, 30 min, read-out: MT-3 receptor binding IC50
[2] = 0.1 nM 125I-melatonin, 30 min, read-out: MT-3 receptor binding KI

T1 sequence (P41595 whole entry): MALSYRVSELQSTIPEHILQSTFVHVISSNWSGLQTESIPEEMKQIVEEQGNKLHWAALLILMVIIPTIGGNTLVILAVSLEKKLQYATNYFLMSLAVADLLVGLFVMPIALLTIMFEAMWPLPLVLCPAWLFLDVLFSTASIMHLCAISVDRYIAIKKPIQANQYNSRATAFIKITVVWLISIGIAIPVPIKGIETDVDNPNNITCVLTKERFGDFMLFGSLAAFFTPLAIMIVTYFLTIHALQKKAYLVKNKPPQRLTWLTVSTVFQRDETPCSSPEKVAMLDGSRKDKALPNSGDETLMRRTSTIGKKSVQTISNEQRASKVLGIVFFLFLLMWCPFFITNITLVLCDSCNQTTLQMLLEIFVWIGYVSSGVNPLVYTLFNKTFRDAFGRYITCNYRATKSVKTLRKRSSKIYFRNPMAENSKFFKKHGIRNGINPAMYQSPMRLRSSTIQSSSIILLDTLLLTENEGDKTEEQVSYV

affinity to 5-HT7 (5-HT7 receptor)	IC50 (5-HT7 receptor; read-out: 5-HT7 IC50) [nM]	Ki (5-HT7 receptor; read-out: 5-HT7 KI) [nM]	IC50 (5-HT1B receptor; read-out: 5-HT1B IC50) [nM]	Ki (5-HT1B receptor; read-out: 5-HT1B KI) [nM]	SMILES	IC50 (5-HT2B receptor; read-out: 5-HT2B IC50) [nM]	Ki (5-HT2B receptor; read-out: 5-HT2B KI) [nM]	IC50 (MT-3 receptor; [1]) [nM]	Ki (MT-3 receptor; [2]) [nM]	inhibition at 10 µM (MT-3 receptor; 10 μM, 0.1 nM 125I-melatonin) [%]	affinity to 5-HT1A (5-HT1A receptor)	IC50 (5-HT1A receptor; read-out: 5-HT1A IC50) [nM]	Ki (5-HT1A receptor; read-out: 5-HT1A KI) [nM]	affinity to 5-HT1B (5-HT1B receptor)	affinity to 5-HT2B (5-HT2B receptor)	affinity to MT-3 (MT-3 receptor)	effect on motor activity and rearing (CD1 mice)	further results
					COc1ccc2[nH]cc(CCNC(=O)c3cc(=O)cc(C(=O)O)o3)c2c1 [N-[2-5-methoxy-indol-3-yl)-ethyl]-chelidonamide]	2100	1330	2200	2200	86	moderate affinity	1030	580	moderate affinity				
moderate affinity	735	420	5440	5160	COc1ccc2[nH]cc(CCNC(=O)c3cc(=O)c(OC)co3)c2c1 [N-[2-(5-methoxy-indol-3-yl)-ethyl]-2-methoxy-commenamide]	1760	1120	230	220	99		1930	1100		moderate affinity			
moderate affinity	664	381	1640	1550	COc1ccc2[nH]cc(CCNC(=O)c3ccc(=O)oc3)c2c1 [N-[2-(5-methoxy-indol-3-yl)-ethyl]-coumalylamide]	3000	1910	980	960	95		1970	650	moderate affinity			significantly decreased both the motor activity and rearing	motor activity (horizontal movement) changes (%) 30 min (CD1 mice; 30 min, vs vehicle): −63.1%; motor activity (horizontal movement) 30 min Means ± SE (CD1 mice; 30 min after treatment, 5 min measurement): 158.8 ± 37.0; motor activity (horizontal movement) changes (%) 60 min (CD1 mice; 60 min, vs vehicle): −80.3%; motor activity (horizontal movement) 60 min Means ± SE (CD1 mice; 60 min after treatment, 5 min measurement): 62.3 ± 16.6

SMILES	affinity to 5-HT7 (5-HT7 receptor)	IC50 (5-HT7 receptor; read-out: 5-HT7 IC50) [nM]	Ki (5-HT7 receptor; read-out: 5-HT7 KI) [nM]	IC50 (5-HT1B receptor; read-out: 5-HT1B IC50) [nM]	Ki (5-HT1B receptor; read-out: 5-HT1B KI) [nM]	IC50 (5-HT2B receptor; read-out: 5-HT2B IC50) [nM]	Ki (5-HT2B receptor; read-out: 5-HT2B KI) [nM]	IC50 (MT-3 receptor; [1]) [nM]	Ki (MT-3 receptor; [2]) [nM]	inhibition at 10 µM (MT-3 receptor; 10 μM, 0.1 nM 125I-melatonin) [%]	affinity to 5-HT1A (5-HT1A receptor)	IC50 (5-HT1A receptor; read-out: 5-HT1A IC50) [nM]	Ki (5-HT1A receptor; read-out: 5-HT1A KI) [nM]	affinity to 5-HT1B (5-HT1B receptor)	affinity to 5-HT2B (5-HT2B receptor)	affinity to MT-3 (MT-3 receptor)	effect on motor activity and rearing (CD1 mice)	further results
COc1ccc2[nH]cc(CCNC(=O)c3cc(=O)cco3)c2c1 [N-[2-(5-methoxy-indol-3-yl)-ethyl]-comanilamide]				2140	2030	6780	4320	310	300	100		1950	1110	moderate affinity		high affinity	did not change significantly the motor activity and rearing	
COc1ccc2[nH]cc(CCNC(=O)c3cc(=O)c(O)co3)c2c1 [N-[2-(5-methoxy-indol-3-yl)-ethyl]-commenamide]	moderate affinity										moderate affinity				moderate affinity	high affinity	did not change significantly the motor activity and rearing	IC50 (5-HT7 receptor): 230 nM; Ki (5-HT7 receptor): 132 nM; IC50 (5-HT2B receptor): 2250 nM; Ki (5-HT2B receptor): 1430 nM; IC50 (MT-3 receptor): 800 nM; Ki (MT-3 receptor): 780 nM; inhibition at 10 µM (MT-3 receptor): 98%; IC50 (5-HT1A receptor): 680 nM; Ki (5-HT1A receptor): 390 nM; IC50 (5-HT1B receptor): 3910 nM; Ki (5-HT1B receptor): 3710 nM
